Laboratory results reported in patent US10245261B2, “Substituted indol-5-ol derivatives and their therapeutic applications” (NantBioScience, Inc., priority 2013, dated 2019).

Key:
Experiment in all cases: KinaseProfiler kinase assay
Type in all cases: biochemical
[1] = biological target: ALK(h) (Homo sapiens, UniProt Q9UM73)
Summary of the method: (§1)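 Using a filter-binding 33P format, reactions initiated by MgATP addition proceeded 40 min at room temperature before a 3% phosphoric acid stop. Filtermats were washed three times in 50 mM phosphoric acid and once in methanol, dried and counted.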

[2] = biological target: ASK1(h) (Homo sapiens, UniProt Q99683)
Summary of the method: as §1

[3] = biological target: Abl(m) (Mus musculus, UniProt P00520)
Summary of the method: as §1

[4] = biological target: Aurora-C(h) (Homo sapiens, UniProt Q9UQB9)
Chain of Aurora-C(h) (Q9UQB9 whole entry): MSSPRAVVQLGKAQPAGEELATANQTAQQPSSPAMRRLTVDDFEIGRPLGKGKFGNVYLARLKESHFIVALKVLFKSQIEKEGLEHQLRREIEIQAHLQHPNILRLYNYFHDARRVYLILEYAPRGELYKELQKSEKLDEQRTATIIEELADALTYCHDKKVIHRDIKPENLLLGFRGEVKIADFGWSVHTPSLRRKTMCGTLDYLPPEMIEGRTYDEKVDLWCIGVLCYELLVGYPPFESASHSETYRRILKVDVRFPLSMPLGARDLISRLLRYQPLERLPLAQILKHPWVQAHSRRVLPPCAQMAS
Summary of the method: as §1

[5] = biological target: Axl(h) (Homo sapiens, UniProt P30530)
Summary of the method: as §1

[6] = biological target: CDK1/cyclinB(h) (Homo sapiens, UniProt P06493)
Summary of the method: as §1

[7] = biological target: CHK2(I157T)(h) (Homo sapiens, UniProt O96017, I157T)
Chain of CHK2(I157T)(h) (O96017 whole entry I157T): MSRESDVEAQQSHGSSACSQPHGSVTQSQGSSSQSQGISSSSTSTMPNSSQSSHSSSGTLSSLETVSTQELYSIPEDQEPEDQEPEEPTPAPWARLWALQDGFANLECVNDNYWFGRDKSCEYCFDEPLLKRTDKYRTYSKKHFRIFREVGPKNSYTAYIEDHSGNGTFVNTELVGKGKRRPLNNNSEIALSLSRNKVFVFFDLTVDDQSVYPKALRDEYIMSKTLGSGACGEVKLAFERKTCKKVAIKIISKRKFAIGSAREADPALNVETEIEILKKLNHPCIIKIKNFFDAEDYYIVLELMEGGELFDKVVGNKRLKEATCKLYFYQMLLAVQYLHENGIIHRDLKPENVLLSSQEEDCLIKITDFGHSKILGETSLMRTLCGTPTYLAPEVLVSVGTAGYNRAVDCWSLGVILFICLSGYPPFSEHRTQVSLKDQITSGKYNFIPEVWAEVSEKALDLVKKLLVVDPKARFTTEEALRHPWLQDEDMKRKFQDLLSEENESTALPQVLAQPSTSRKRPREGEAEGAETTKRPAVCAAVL
Summary of the method: as §1

[8] = biological target: EGFR(L858R)(h) (Homo sapiens, UniProt P00533, L858R)
Summary of the method: as §1

[9] = biological target: EGFR(L861Q)(h) (Homo sapiens, UniProt P00533, L861Q)
Summary of the method: as §1

[10] = biological target: EphA7(h) (Homo sapiens, UniProt Q15375)
Summary of the method: as §1

[11] = biological target: EphA8(h) (Homo sapiens, UniProt P29322)
Summary of the method: as §1

[12] = biological target: FAK(h) (Homo sapiens, UniProt Q05397)
Chain of FAK(h) (Q05397 whole entry): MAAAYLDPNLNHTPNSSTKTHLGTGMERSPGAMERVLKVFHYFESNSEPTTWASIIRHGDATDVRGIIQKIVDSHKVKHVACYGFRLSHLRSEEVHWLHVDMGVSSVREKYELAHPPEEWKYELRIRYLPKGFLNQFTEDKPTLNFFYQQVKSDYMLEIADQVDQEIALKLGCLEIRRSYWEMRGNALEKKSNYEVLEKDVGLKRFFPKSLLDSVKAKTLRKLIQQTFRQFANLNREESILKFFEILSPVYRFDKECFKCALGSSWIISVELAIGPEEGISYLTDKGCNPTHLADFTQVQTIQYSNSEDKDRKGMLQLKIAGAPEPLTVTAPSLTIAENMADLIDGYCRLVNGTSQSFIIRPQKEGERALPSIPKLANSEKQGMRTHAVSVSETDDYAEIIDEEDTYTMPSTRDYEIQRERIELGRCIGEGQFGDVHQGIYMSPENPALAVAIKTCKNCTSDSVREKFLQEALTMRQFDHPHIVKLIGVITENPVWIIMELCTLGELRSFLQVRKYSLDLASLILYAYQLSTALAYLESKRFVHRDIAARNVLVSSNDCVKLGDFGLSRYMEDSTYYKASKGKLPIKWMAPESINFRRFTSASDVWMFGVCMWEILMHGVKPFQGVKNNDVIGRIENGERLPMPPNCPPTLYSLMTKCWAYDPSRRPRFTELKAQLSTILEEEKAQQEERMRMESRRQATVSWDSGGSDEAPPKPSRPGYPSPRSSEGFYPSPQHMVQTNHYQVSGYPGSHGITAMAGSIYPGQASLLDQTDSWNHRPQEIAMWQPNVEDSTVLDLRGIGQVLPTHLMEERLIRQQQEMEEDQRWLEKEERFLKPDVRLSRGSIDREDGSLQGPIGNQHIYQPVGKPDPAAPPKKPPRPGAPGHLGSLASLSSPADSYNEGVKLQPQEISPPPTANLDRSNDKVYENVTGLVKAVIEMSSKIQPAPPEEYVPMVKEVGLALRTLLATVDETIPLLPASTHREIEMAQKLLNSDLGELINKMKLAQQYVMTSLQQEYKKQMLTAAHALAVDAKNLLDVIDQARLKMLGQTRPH
Summary of the method: as §1

[13] = biological target: Fer(h) (Homo sapiens, UniProt P16591)
Summary of the method: as §1

[14] = biological target: JAK2(h) (Homo sapiens, UniProt O60674)
Summary of the method: as §1

[15] = biological target: LIMK1(h) (Homo sapiens, UniProt P53667)
Summary of the method: as §1

[16] = biological target: Lyn(h) (Homo sapiens, UniProt P07948)
Summary of the method: as §1

[17] = biological target: MST1(h) (Homo sapiens, UniProt Q13043)
Summary of the method: as §1

[18] = biological target: MST3(h) (Homo sapiens, UniProt Q9Y6E0)
Chain of MST3(h) (Q9Y6E0 whole entry): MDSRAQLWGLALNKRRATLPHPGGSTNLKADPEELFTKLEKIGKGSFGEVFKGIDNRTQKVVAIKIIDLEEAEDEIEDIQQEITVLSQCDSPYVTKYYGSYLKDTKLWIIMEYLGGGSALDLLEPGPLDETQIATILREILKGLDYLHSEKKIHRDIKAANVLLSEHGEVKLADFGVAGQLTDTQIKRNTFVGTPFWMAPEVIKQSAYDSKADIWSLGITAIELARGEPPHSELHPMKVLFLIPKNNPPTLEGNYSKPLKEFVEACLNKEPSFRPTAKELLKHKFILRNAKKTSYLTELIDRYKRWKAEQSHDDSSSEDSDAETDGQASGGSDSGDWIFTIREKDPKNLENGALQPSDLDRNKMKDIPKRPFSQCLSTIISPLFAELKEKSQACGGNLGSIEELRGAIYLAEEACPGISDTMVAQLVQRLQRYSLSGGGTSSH
Summary of the method: as §1

[19] = biological target: Mer(h) (Homo sapiens, UniProt Q12866)
Summary of the method: as §1

[20] = biological target: NEK11(h) (Homo sapiens, UniProt Q8NG66)
Summary of the method: as §1

[21] = biological target: NEK3(h) (Homo sapiens, UniProt P51956)
Chain of NEK3(h) (P51956 whole entry): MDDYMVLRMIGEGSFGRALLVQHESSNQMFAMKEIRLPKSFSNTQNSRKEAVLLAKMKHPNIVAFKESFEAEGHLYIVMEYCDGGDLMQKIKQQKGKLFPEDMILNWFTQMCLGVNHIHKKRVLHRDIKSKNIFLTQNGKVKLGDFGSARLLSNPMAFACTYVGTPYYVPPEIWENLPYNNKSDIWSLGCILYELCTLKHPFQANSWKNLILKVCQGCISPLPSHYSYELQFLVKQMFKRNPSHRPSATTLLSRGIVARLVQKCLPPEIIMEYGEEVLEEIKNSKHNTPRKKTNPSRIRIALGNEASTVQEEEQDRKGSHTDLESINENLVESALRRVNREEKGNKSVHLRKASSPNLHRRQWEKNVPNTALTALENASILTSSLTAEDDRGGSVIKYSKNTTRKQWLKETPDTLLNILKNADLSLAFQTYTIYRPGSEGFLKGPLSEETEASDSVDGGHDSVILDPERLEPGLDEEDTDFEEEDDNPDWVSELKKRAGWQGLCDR
Summary of the method: as §1

[22] = biological target: PDGFRα(h) (Homo sapiens, UniProt P16234)
Chain of PDGFRα(h) (P16234 24-1089): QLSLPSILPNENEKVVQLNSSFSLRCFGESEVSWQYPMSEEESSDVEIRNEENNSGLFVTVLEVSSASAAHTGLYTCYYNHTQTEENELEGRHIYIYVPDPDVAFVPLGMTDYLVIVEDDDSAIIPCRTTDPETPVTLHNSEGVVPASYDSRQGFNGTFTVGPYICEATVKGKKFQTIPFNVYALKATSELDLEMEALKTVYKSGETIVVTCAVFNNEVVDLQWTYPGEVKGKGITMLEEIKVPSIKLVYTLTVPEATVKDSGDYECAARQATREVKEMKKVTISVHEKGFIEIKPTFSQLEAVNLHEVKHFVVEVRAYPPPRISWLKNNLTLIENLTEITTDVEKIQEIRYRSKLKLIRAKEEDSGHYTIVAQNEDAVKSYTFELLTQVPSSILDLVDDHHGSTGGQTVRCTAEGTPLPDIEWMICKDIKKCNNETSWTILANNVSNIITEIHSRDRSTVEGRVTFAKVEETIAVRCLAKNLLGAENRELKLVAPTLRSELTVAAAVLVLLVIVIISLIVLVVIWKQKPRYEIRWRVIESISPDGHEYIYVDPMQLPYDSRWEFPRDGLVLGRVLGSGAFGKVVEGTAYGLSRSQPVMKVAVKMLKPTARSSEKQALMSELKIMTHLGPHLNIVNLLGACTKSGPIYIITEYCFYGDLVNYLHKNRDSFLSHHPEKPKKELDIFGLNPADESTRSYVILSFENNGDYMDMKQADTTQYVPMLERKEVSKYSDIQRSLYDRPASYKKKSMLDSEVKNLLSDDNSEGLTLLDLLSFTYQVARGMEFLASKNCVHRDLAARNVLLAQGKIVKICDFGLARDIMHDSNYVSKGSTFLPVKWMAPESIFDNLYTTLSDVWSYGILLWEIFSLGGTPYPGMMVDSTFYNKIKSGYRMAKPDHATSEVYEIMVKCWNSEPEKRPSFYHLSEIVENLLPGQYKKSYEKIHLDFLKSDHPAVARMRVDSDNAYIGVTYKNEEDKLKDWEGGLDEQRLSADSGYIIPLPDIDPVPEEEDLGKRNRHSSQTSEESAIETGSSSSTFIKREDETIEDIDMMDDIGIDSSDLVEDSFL
Summary of the method: as §1

[23] = biological target: PI3 Kinase (p110δ/p85α)(m) (Mus musculus, UniProt O35904)
Summary of the method: as §1

[24] = biological target: PKBα(h) (Homo sapiens, UniProt P31749)
Summary of the method: as §1

[25] = biological target: PKCη(h) (Homo sapiens, UniProt P24723)
Summary of the method: as §1

[26] = biological target: Rsk3(h) (Homo sapiens, UniProt Q15349)
Chain of Rsk3(h) (Q15349 whole entry): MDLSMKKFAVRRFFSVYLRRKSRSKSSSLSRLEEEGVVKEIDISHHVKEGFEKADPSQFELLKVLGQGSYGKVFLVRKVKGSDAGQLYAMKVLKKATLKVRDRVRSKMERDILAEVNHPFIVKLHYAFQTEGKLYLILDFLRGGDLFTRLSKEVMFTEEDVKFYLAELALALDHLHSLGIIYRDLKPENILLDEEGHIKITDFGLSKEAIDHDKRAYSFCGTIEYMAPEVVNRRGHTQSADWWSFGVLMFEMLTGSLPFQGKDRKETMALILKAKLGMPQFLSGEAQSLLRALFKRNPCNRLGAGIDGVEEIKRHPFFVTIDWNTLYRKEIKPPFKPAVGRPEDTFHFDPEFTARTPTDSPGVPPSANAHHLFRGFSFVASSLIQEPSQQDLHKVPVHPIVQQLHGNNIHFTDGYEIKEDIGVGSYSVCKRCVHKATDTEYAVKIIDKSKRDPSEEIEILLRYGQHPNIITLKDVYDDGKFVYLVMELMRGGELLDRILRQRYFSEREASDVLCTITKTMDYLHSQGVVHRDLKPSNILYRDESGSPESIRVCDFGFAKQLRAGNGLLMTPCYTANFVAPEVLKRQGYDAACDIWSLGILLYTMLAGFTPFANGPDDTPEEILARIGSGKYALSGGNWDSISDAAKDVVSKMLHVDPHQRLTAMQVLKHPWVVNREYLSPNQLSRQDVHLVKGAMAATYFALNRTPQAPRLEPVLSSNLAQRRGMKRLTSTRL
Summary of the method: as §1

[27] = biological target: Syk(h) (Homo sapiens, UniProt P43405)
Summary of the method: as §1

[28] = biological target: TAO3(h) (Homo sapiens, UniProt Q9H2K8)
Summary of the method: as §1

[29] = biological target: Tie2 (h) (Homo sapiens, UniProt Q02763)
Summary of the method: as §1

[30] = biological target: ZAP-70(h) (Homo sapiens, UniProt P43403)
Summary of the method: as §1

[31] = biological target: c-RAF(h) (Homo sapiens, UniProt P04049, Y340D/Y341D)
Chain of c-RAF(h) (P04049 306-648 Y340D/Y341D): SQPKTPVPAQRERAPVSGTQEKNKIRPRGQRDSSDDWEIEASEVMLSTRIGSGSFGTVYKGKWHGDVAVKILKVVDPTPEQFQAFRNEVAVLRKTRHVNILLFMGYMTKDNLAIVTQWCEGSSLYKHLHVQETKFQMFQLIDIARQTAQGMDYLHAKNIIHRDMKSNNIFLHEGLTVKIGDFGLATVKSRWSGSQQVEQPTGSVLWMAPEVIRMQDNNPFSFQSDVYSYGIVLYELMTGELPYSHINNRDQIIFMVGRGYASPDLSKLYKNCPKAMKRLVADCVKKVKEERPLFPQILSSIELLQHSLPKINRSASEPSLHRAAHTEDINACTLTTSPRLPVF
Summary of the method: as §1

[32] = biological target: eEF-2K(h) (Homo sapiens, UniProt O00418)
Summary of the method: as §1

Compound | inhibition at 0.1 µM [1] | inhibition at 0.1 µM [2] | inhibition at 0.1 µM [3] | inhibition at 0.1 µM [4] | inhibition at 0.1 µM [5] | inhibition at 0.1 µM [6] | inhibition at 0.1 µM [7] | inhibition at 0.1 µM [8] | inhibition at 0.1 µM [9] | inhibition at 0.1 µM [10] | inhibition at 0.1 µM [11] | inhibition at 0.1 µM [12] | inhibition at 0.1 µM [13] | inhibition at 0.1 µM [14] | inhibition at 0.1 µM [15] | inhibition at 0.1 µM [16] | inhibition at 0.1 µM [17] | inhibition at 0.1 µM [18] | inhibition at 0.1 µM [19] | inhibition at 0.1 µM [20] | further results
Cc1cc2c(F)c(Oc3nc(Nc4cc(C5CC5)[nH]n4)cc(N4CCN(C)CC4)n3)ccc2[nH]1 [Compound 10] | 87% | -14% | 101% | 54% | 70% | 10% | 30% | -5% | 2% | 23% | 33% | 22% | 38% | 92% | 83% | 100% | 78% | 85% | 97% | -8% | inhibition at 0.1 µM [21]: 18%; inhibition at 0.1 µM [22]: -3%; inhibition at 0.1 µM [23]: -19%; inhibition at 0.1 µM [24]: -24%; inhibition at 0.1 µM [25]: -16%; inhibition at 0.1 µM [26]: 63%; inhibition at 0.1 µM [27]: 25%; inhibition at 0.1 µM [28]: 20%; inhibition at 0.1 µM [29]: 100%; inhibition at 0.1 µM [30]: 3%; inhibition at 0.1 µM [31]: 6%; inhibition at 0.1 µM [32]: -15%
Cc1cc2c(F)c(Oc3nc(Nc4cc(C5CC5)[nH]n4)cc(N4CCNCC4)n3)ccc2[nH]1 [Compound 11, N-(5-cyclopropyl-1H-pyrazol-3-yl)-2-((4-fluoro-2-methyl-1H-indol-5-yl)oxy)-6-(piperazin-1-yl)pyrimidin-4-amine] | 86% | -17% | 104% | 67% | 62% | -1% | -1% | 23% | 34% | 34% | 39% | 22% | 45% | 99% | 90% | 99% | 74% | 80% | 96% | -6% | inhibition at 0.1 µM [21]: 16%; inhibition at 0.1 µM [22]: 29%; inhibition at 0.1 µM [23]: 6%; inhibition at 0.1 µM [24]: -4%; inhibition at 0.1 µM [25]: -7%; inhibition at 0.1 µM [26]: 63%; inhibition at 0.1 µM [27]: 36%; inhibition at 0.1 µM [28]: 8%; inhibition at 0.1 µM [29]: 98%; inhibition at 0.1 µM [30]: -13%; inhibition at 0.1 µM [31]: 1%; inhibition at 0.1 µM [32]: 10%
